Results: patent US9533983B2, “Antiplatelet agent” (Mitsubishi Tanabe Pharma Corporation, priority 2009, dated 2017)

Tests used:
[1] = test system: Ristocetin-Induced Platelet Aggregation; test: Platelet aggregation inhibitory activity: ristocetin-induced platelet aggregation in platelet rich plasma; format: cell-based; details: Cavia porcellus, guinea pig PRP
Protocol: (§1) A blood of a guinea pig was sampled by using a 1/10 volume of a 3.8% sodium citrate as a platelet aggregation inhibitor, and a platelet rich plasma (PRP) was separated by centrifuging the blood sample at 1100 rpm for 10 min. After fractionating the PRP in the upper layer, the lower layer was centrifuged at 3000 rpm for 10 min to fractionate the platelet poor plasma (PPP). To 100 μL of PRP, a 1 μL solution of each compound was added, and after still standing at 37° C. for 1 min, the mixture was stirred at 37° C. for 1 min by a stirrer. Then, 11 μL of collagen, ristocetin, or ADP was added thereto to induce the platelet aggregation. The platelet aggregation ability was measured by using the mCM hematolaser 313M (L-M-S Inc.). Based on the assumption that a light transmittance of PPP corresponds to a 100% coagulation value, an aggregation rate at each concentration of the compound was determined, then, an IC50 value was calculated therefrom.
[Platelet Aggregation Inhibitory Activities: Ristocetin-Induced Platelet Aggregation]

[2] = test system: Collagen-Induced Platelet Aggregation; test: Platelet aggregation inhibitory activity: collagen-induced platelet aggregation in platelet rich plasma; format: cell-based; details: Cavia porcellus, guinea pig PRP
Protocol: as §1
[Platelet Aggregation Inhibitory Activities: Collagen-Induced Platelet Aggregation]

SMILES	IC50 [1]	IC50 [2]
COc1ccc(-n2c(-c3cccc(F)n3)nc3cc(C(F)(F)F)ccc32)nn1 [Example 2, 2-(6-fluoropyridin-2-yl)-1-(6-methoxypyridazin-3-yl)-5-(trifluoromethyl)-1H-benzimidazole]	92 nM	180 nM
CN(C)c1ccc(-n2c(-c3ccccn3)nc3cc(C(F)(F)F)cnc32)cn1 [Example 6, N,N-dimethyl-5-[2-pyridin-2-yl-6-(trifluoromethyl)-3H-imidazo[4,5-b]pyridin-3-yl]pyridin-2-amine]	–	257 nM
FC(F)(F)c1ccc2c(c1)nc(-c1ccccn1)n2-c1ccccn1 [Example 12, 1,2-Dipyridin-2-yl-5-(trifluoromethyl)-1H-benzimidazole]	190 nM	230 nM
COc1ccc(-n2c(-c3cnn(C)c3)nc3cc(C(F)(F)F)ccc32)nn1 [Example 15, 1-(6-methoxypyridazin-3-yl)-2-(1-methyl-1H-pyrazol-4-yl)-5-(trifluoromethyl)-1H-benzimidazole]	150 nM	280 nM
COc1ccc(-n2c(-c3ccccc3)nc3cc(C(F)(F)F)ccc32)cn1 [Example 18, 1-(6-methoxypyridin-3-yl)-2-phenyl-5-(trifluoromethyl)-1H-benzimidazole]	120 nM	490 nM
COc1ccc(-n2c(-c3ccccn3)nc3ccc(C(F)(F)F)cc32)cn1 [Example 19]	–	10400 nM
COc1ccc(-n2c(-c3ccccn3)nc3ccccc32)cn1 [Example 23]	–	4470 nM
COc1ccc(-n2c(-c3ccccn3)nc3cc(C4CC4)ccc32)cn1 [Example 27, 5-cyclopropyl-1-(6-methoxypyridin-3-yl)-2-pyridin-2-yl-1H-benzimidazole]	170 nM	190 nM
COc1ccc(-n2c(-c3ccccn3)nc3cc(OCC4CC4)ccc32)cn1 [Example 31, 5-(cyclopropylmethoxy)-1-(6-methoxypyridin-3-yl)-2-pyridin-2-yl-1H-benzimidazole]	870 nM	250 nM
COc1ccc(-n2c(-c3ccccn3)nc3c(C(F)(F)F)cccc32)cn1 [Example 37]	–	2380 nM
COc1ccc(-n2c(-c3ccccn3)nc3cccnc32)cn1 [Example 49]	–	15000 nM
Cc1ccc(-n2c(-c3ccccn3)nc3cc(C(F)(F)F)cnc32)cn1 [Example 118, 3-(6-methylpyridin-3-yl)-2-pyridin-2-yl-6-(trifluoromethyl)-3H-imidazo[4,5-b]pyridine]	–	240 nM
CNc1ccc(-n2c(-c3ccc(F)cn3)nc3cc(C(F)(F)F)cnc32)cn1 [Example 149, 5-[2-(5-fluoropyridin-2-yl)-6-(trifluoromethyl)-3H-imidazo[4,5-b]pyridin-3-yl]-N-methylpyridin-2-amine]	–	230 nM
COc1cnc(-n2c(-c3ccn(C)n3)nc3cc(C(F)(F)F)cnc32)cn1 [Example 153, 3-(5-methoxypyrazine-2-yl)-2-(1-methyl-1H-pyrazol-3-yl)-6-(trifluoromethyl)-3H-imidazo[4,5-b]pyridine]	–	291 nM
COc1cnc(-n2c(-c3ccccn3)nc3cc(C(F)(F)F)ccc32)cn1 [Example 161, 1-(5-methoxypyrazine-2-yl)-2-pyridin-2-yl-5-(trifluoromethyl)-1H-benzimidazole]	–	268 nM
COc1cnc(-n2c(-c3cnn(C)c3)nc3cc(C(F)(F)F)cnc32)cn1 [Example 165, 3-(5-methoxypyrazine-2-yl)-2-(1-methyl-1H-pyrazol-4-yl)-6-(trifluoromethyl)-3H-imidazo[4,5-b]pyridine]	–	203 nM
COc1ccc(-n2c(-c3cnn(C)c3)nc3cc(OC(F)(F)F)ccc32)nn1 [Example 166, 1-(6-methoxypyridazin-3-yl)-2-(1-methyl-1H-pyrazol-4-yl)-5-(trifluoromethoxy)-1H-benzimidazole]	–	316 nM
COc1ccc(-n2c(-c3cc(C)on3)nc3cc(OC(F)(F)F)ccc32)nn1 [Example 168, 1-(6-methoxypyridazin-3-yl)-2-(5-methylisoxazol-3-yl)-5-(trifluoromethoxy)-1H-benzimidazole]	–	259 nM
CCOc1cnc2c(c1)nc(-c1ccccn1)n2-c1ccc(OC)nc1 [Example 170, 6-ethoxy-3-(6-methoxypyridin-3-yl)-2-pyridin-2-yl-3H-imidazo[4,5-b]pyridine]	–	279 nM
CCc1nc(-c2nc3cc(C(F)(F)F)cnc3n2-c2ccc(OC)nc2)co1 [Example 172, 2-(2-ethyl-1,3-oxazol-4-yl)-3-(6-methoxypyridin-3-yl)-6-(trifluoromethyl)-3H-imidazo[4,5-b]pyridine]	–	275 nM
COc1ccc(-c2c(-c3ccccn3)nc3cc(C(F)(F)F)ccn23)cn1 [Example 190, 3-(6-methoxypyridin-3-yl)-2-pyridin-2-yl-7-(trifluoromethyl)imidazo[1,2-a]pyridine]	–	218 nM
COc1ccc(-c2c(-c3ccc(F)cn3)nc3cc(C(F)(F)F)ccn23)cn1 [Example 191, 2-(5-fluoropyridin-2-yl)-3-(6-methoxypyridin-3-yl)-7-(trifluoromethyl)imidazo[1,2-a]pyridine]	–	790 nM

Stronger by IC50 [2], values ahead:

IC50 [1]	IC50 [2]	SMILES
–	89 nM	CNc1ccc(-n2c(-c3ccccn3)nc3cc(C(F)(F)F)cnc32)cn1 [Example 5, N-methyl-5-[2-pyridin-2-yl-6-(trifluoromethyl)-3H-imidazo[4,5-b]pyridin-3-yl]pyridin-2-amine]
95 nM	150 nM	COc1ccc(-n2c(-c3cnc(C#N)cn3)nc3cc(C(F)(F)F)cnc32)cn1 [Example 8, 5-[3-(6-methoxypyridin-3-yl)-6-(trifluoromethyl)-3H-imidazo[4,5-b]pyridin-2-yl]pyrazine-2-carbonitrile]
140 nM	150 nM	COc1ccc(-n2c(-c3ccc(OC)nn3)nc3cc(C(F)(F)F)ccc32)cn1 [Example 9, 2-(6-methoxypyridazin-3-yl)-1-(6-methoxypyridin-3-yl)-5-(trifluoromethyl)-1H-benzimidazole]
15 nM	18 nM	COc1ccc(-n2c(-c3ccc[nH]3)nc3cc(C(F)(F)F)cnc32)cn1 [Example 10, 3-(6-methoxypyridin-3-yl)-2-(1H-pyrrol-2-yl)-6-(trifluoromethyl)-3H-imidazo[4,5-b]pyridine]
57 nM	130 nM	COc1ccc(-n2c(-c3c[nH]cn3)nc3cc(C(F)(F)F)cnc32)cn1 [Example 11, 2-(1H-Imidazol-4-yl)-3-(6-methoxypyridin-3-yl)-6-(trifluoromethyl)-3H-imidazo[4,5-b]pyridine]
160 nM	110 nM	CCc1ccc2c(c1)nc(-c1ccccn1)n2-c1ccc(OC)nc1 [Example 17, 5-ethyl-1-(6-methoxypyridin-3-yl)-2-pyridin-2-yl-1H-benzimidazole]
210 nM	62 nM	COc1ccc(-n2c(-c3ccc(Br)cn3)nc3cc(C(F)(F)F)ccc32)cn1 [Example 20, 2-(5-bromopyridin-2-yl)-1-(6-methoxypyridin-3-yl)-5-(trifluoromethyl)-1H-benzimidazole]
390 nM	130 nM	COc1ccc(-n2c(-c3ccc(F)cn3)nc3cc(C(F)(F)F)ccc32)cn1 [Example 21, 2-(5-fluoropyridin-2-yl)-1-(6-methoxypyridin-3-yl)-5-(trifluoromethyl)-1H-benzimidazole]
–	44 nM	COc1ccc(-n2c(-c3ccc(Br)cn3)nc3cc(C(F)(F)F)ccc32)nn1 [Example 35, 2-(5-bromopyridin-2-yl)-1-(6-methoxypyridazin-3-yl)-5-(trifluoromethyl)-1H-benzimidazole]
–	81 nM	COc1cnc(-n2c(-c3cscn3)nc3cc(C(F)(F)F)cnc32)cn1 [Example 148, 3-(5-methoxypyrazine-2-yl)-2-(1,3-thiazol-4-yl)-6-(trifluoromethyl)-3H-imidazo[4,5-b]pyridine]
–	76 nM	COc1ccc(-n2c(-c3ccn(C)n3)nc3cc(OC(F)(F)F)ccc32)nn1 [Example 156, 1-(6-methoxypyridazin-3-yl)-2-(1-methyl-1H-pyrazol-3-yl)-5-(trifluoromethoxy)-1H-benzimidazole]
–	74 nM	COc1cnc(-n2c(-c3cnc(C#N)cn3)nc3cc(C(F)(F)F)cnc32)cn1 [Example 157]
–	125 nM	COc1ccc(-n2c(-c3cn(C)nn3)nc3cc(C(F)(F)F)ccc32)nn1 [Example 163, 1-(6-methoxypyridazin-3-yl)-2-(1-methyl-1H-1,2,3-triazol-4-yl)-5-(trifluoromethyl)-1H-benzimidazole]
–	161 nM	COc1cnc(-n2c(-c3cn(C)nn3)nc3cc(C(F)(F)F)cnc32)cn1 [Example 164, 3-(5-methoxypyrazine-2-yl)-2-(1-methyl-1H-1,2,3-triazol-4-yl)-6-(trifluoromethyl)-3H-imidazo[4,5-b]pyridine]
–	91 nM	COc1ccc(-n2c(-c3ccccn3)nc3cc(OCC4CC4)cnc32)cn1 [Example 171, 6-(cyclopropylmethoxy)-3-(6-methoxypyridin-3-yl)-2-pyridin-2-yl-3H-imidazo[4,5-b]pyridine]
–	40 nM	COc1cnc(-n2c(-c3ccccn3)cc3cc(C(F)(F)F)cnc32)cn1 [Example 187, 1-(5-methoxypyrazine-2-yl)-2-pyridin-2-yl-5-(trifluoromethyl)-1H-pyrrolo[2,3-b]pyridine]
–	30 nM	COc1ccc(-c2c3ccc(C(F)(F)F)cc3nn2-c2ccccn2)cn1 [Example 188, 3-(6-methoxypyridin-3-yl)-2-pyridin-2-yl-6-(trifluoromethyl)-2H-indazole]
